# Biological target: T1, 5-hydroxytryptamine receptor 1A (Rattus norvegicus, UniProt P19327)
# T1 sequence (P19327 whole entry): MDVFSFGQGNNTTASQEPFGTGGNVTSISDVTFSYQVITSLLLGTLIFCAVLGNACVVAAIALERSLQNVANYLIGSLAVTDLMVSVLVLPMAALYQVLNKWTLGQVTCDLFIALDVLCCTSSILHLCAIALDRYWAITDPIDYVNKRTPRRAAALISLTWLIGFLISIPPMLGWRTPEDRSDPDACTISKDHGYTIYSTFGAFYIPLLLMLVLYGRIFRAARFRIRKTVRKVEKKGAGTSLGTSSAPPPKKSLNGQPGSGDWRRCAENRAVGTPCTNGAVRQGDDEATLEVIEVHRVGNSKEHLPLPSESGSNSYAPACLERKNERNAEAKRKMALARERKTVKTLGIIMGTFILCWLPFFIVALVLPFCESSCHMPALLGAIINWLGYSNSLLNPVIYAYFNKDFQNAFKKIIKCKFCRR
# Experiment: Binding affinity was measured at the serotonin 5-hydroxytryptamine 1A receptor using [3H]8-OH-DPAT as radioligand in rat hippocampal membrane.
# Format: cell membranes, Hippocampus
row,IC50 [nM],Compound
1,220,COc1cccc(C(=O)NCCN2CCN(c3ccc(Cl)cc3)CC2)c1

# Biological target: T2, Adrenergic receptor alpha-1 (Rattus norvegicus, UniProt P15823+P23944+P43140)
# T2 sequence (P15823 whole entry): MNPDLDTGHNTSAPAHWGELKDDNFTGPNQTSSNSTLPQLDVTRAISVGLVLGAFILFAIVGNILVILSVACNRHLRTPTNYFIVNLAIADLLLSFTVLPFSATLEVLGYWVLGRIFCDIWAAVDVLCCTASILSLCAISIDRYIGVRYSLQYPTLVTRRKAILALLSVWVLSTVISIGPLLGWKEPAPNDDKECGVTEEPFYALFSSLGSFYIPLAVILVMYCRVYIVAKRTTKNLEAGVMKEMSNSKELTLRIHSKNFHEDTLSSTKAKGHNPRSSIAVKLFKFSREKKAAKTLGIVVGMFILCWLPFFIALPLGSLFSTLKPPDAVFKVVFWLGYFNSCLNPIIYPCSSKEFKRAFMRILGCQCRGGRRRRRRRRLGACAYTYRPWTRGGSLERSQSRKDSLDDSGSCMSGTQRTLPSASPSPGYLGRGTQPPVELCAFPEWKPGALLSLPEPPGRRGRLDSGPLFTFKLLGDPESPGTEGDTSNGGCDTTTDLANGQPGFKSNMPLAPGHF
# T2 sequence (P23944 whole entry): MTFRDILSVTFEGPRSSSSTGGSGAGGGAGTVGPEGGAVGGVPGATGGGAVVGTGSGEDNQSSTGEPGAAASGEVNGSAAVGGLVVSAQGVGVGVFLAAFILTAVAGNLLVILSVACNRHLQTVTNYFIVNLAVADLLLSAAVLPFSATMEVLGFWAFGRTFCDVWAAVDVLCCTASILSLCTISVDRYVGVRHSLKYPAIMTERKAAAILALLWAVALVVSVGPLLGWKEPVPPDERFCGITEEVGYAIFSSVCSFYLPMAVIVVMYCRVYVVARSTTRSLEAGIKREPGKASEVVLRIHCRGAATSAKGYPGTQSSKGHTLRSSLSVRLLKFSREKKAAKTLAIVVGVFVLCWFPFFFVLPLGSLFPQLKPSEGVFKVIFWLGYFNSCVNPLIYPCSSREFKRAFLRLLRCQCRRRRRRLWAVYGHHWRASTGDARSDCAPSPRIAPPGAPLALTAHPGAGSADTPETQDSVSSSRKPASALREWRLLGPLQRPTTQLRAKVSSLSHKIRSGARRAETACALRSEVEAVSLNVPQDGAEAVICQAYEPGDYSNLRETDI
# T2 sequence (P43140 whole entry): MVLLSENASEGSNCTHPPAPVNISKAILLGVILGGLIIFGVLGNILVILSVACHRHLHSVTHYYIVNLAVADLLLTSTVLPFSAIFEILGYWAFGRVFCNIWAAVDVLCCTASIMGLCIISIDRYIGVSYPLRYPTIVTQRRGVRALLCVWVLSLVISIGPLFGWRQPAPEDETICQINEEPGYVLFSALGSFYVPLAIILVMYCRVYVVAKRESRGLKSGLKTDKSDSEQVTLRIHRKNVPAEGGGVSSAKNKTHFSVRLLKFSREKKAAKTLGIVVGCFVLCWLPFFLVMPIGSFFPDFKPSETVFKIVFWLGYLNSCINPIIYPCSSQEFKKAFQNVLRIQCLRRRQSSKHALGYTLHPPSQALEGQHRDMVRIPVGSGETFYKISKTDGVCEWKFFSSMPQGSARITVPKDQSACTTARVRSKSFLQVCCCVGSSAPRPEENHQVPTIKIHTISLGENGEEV
# Experiment: Binding affinity was measured at the Alpha-1 adrenergic receptor using [3H]prazosin as radioligand in rat brain cortex membrane.
# Format: cell membranes
row,IC50 [nM],Compound
1,270,COc1cccc(C(=O)NCCN2CCN(c3ccc(Cl)cc3)CC2)c1

# Biological target: T3, D(4) dopamine receptor (Homo sapiens, UniProt P21917)
# T3 sequence (P21917 whole entry): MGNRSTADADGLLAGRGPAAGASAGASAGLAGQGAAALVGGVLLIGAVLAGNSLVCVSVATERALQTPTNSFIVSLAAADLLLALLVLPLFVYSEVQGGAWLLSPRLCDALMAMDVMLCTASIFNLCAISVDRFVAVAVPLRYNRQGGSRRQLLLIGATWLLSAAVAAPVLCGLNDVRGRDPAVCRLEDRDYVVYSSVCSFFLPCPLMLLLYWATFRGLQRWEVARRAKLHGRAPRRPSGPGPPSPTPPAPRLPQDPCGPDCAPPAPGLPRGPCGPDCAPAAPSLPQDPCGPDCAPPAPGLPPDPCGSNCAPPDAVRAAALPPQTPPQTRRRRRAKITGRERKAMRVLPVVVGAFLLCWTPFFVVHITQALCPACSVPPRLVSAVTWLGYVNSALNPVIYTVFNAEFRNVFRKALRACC
# Experiment: In vitro binding affinity was measured at the cloned human Dopamine receptor D4.2 using [3H]YM-09151-2 as radioligand.
row,Ki [nM],Compound
1,0.7,COc1ccccc1N1CCN(Cc2ccn(-c3ccccc3)c2)CC1
2,3,COc1ccccc1N1CCN(CCNC2=Nc3ccccc3OC2)CC1

# Biological target: T3, D(4) dopamine receptor
# Experiment: In vitro binding affinity at human cloned Dopamine receptor D4.2 by [3H]YM-09151-2 displacement.
row,Compound,IC50 [nM]
1,COc1ccc2c(c1)C(CCCN1CCN(c3ccccc3OC)CC1)CCC2 (stereo not given),280
2,COc1ccc2c(c1)CC(NC(=O)CN1CCN(c3ccccc3OC)CC1)CC2 (stereo not given),470
3,COc1ccccc1N1CCN(CC(=O)NC2CCc3c(cccc3OC)C2)CC1 (stereo not given),850
4,COc1cccc(-c2csc(CN3CCN(c4ccccc4OC)CC3)n2)c1,740

# Next, values leading:
row,IC50 [nM],Compound
1,70,COc1cccc(C(=O)NCCN2CCN(Cc3ccc(Cl)cc3)CC2)c1
2,3.1,COc1cccc(C(=O)CCCN2CCN(c3ccccc3OC)CC2)c1
3,4,COc1ccccc1C(=O)NCCN1CCN(c2ccccc2OC)CC1
4,120,COc1ccccc1N1CCN(CCC(=O)NC2CCc3c(cccc3OC)C2)CC1 (stereo not given)
5,30,COc1cccc(C(=O)NCCN2CCN(Cc3ccccc3OC)CC2)c1
6,0.057,COc1cccc(C(=O)NCCN2CCN(c3ccc(Cl)cc3)CC2)c1
7,7.8,COc1ccc(OC)c(C(=O)NCCN2CCN(c3ccccc3OC)CC2)c1
